From US20220213119A1, “THIENOHETEROCYCLIC DERIVATIVE, PREPARATION METHOD THEREFOR AND MEDICAL USE THEREOF” (Jiangsu Hengrui Medicine Ca, Lid., priority 2019, published 2022)
pIC50: −log10 of the molar value.

What was measured:
[1] = biological target: T1, ERK2 (Homo sapiens, UniProt P28482); assay: ERK2 enzyme activity test (ADP-Glo Kinase Assay); assay type: biochemical; conditions: chemiluminescence
T1 construct: purchased R&D 1230-KS-010
Protocol: The purpose of this experiment is to detect the inhibitory ability of the compounds on the ERK2 enzyme activity and evaluate the activity of the compounds in vitro according to IC50. The ADP-Glo™ Kinase Assay Kit was used in this experiment. Under the action of enzyme, the substrate was phosphorylated and ADP was produced at the same time. The ADP-Glo Reagent was added to remove unreacted ATP in the reaction system. The kinase detection reagent was used to detect the ADP produced by the reaction. In the presence of the compound, the inhibition rate of the compound was calculated by measuring the signal value.
Enzyme and substrate preparation: ERK2 (1230-KS-010, R&D) and substrate (Custom peptides, Gill Biochemical) were prepared to be 0.75 ng/μl and 1500 μM in the buffer (40 mM Tris, 20 mM MgCl2, 0.1 mg/mL BSA, 50 μM DTT). The enzyme solution and substrate solution were then prepared into a mixed solution at a volume ratio of 2:1 for later use. ATP was diluted to 500 μM with the buffer. The compounds were dissolved in DMSO (dimethyl sulfoxide, Shanghai Titan Scientific Co., Ltd.) to prepare a stock solution with an initial concentration of 20 mM, and then Bravo was used to prepare solutions of the compounds. Finally, a 3 μL of a mixed solution of enzyme and substrate, and 1 μL of different concentrations of the compound (the initial concentration is 50 μM, 4-fold dilution) were added to each well of the 384-well plate, and the plate was incubated at 30° C. for 10 minutes, and finally 1 μL of 500 μM ATP solution was added to each well, and the plate was incubated at 30° C. for 2 hours. Then 5 μL of ADP-Glo was added, and the plate was incubated at 30° C. for 40 minutes. Then 10 μL of Kinase detection buffer was added, and the plate was incubated at 30° C. for 40 minutes. The 384-well plate was taken out and placed in a microplate reader (BMG labtech, PHERAstar FS), and the chemiluminescence was measured by the microplate reader.
(§1) The data were processed and analyzed with Microsoft Excel, Graphpad Prism 5.

[2] = tested on: Colo205 cells; assay: In vitro proliferation inhibition test on Colo205 tumor cells (CellTiter-Glo); assay type: cell-based; conditions: Homo sapiens, COLO 205, 72 h; Colo205 cell proliferation, 3 days of culture, CTG
Protocol: The purpose of this experiment is to test the inhibitory activity of the compounds on the proliferation of Colo205 cells (CCL-222, ATCC) in vitro. The cells were treated with different concentrations of compounds in vitro. After 3 days of culture, the cell proliferation was detected using CTG (CellTiter-Glo® Luminescent Cell Viability Assay, Promega, catalog number: G7573) reagent. The in vitro activity of the compounds was evaluated according to the IC50 value.
In the following, taking the in vitro proliferation inhibition test method of Colo205 cells as an example, the method in the present disclosure for testing the in vitro proliferation inhibitory activity of the compounds of the present disclosure is described. This method is also applicable to, but not limited to, the in vitro proliferation inhibitory activity test on other tumor cells.
Colo205 cells were digested, centrifuged and then resuspended. The single cell suspension was mixed well, and the density of viable cells was adjusted to 5.0×10^4 cells/ml with cell culture medium (RPMI1640+2% FBS), and 95 μl/well was added to a 96-well cell culture plate. Only 100 μl medium was added to the peripheral wells of the 96-well plate. The culture plate was incubated in an incubator for 24 hours (37° C., 5% CO2).
The compound was dissolved in DMSO (dimethyl sulfoxide, Shanghai Titan Scientific Co., Ltd.) and prepared into a stock solution with an initial concentration of 20 mM. The initial concentration of the small molecule compound is 2 mM, and then 4-fold diluted into to 9 points, and the tenth point is DMSO. Another 96-well plate was taken, 90 μl of cell culture medium (RPMI1640+2% FBS) was added to each well, then 10 μl of different concentrations of the test sample was added to each well, the mixture was mixed well, and then 5 μl of different concentrations of the test sample was added to the cell culture plate, and each sample has two duplicate holes. The culture plate was incubated in the incubator for 3 days (37° C., 5% CO2). The 96-well cell culture plate was taken out, 50 μl CTG solution was added to each well, and the plate was incubated for 10 minutes at room temperature. In a microplate reader (BMG labtech, PHERAstar FS), chemiluminescence was measured with the microplate reader.
as §1

[3] = Pharmacokinetics assay in mice; assay type: in vivo; conditions: mouse, po, C57 mice (female), intragastric, 2 mg/kg, plasma; for Vd/F: read-out: Apparent distribution volume Vz/F; for AUC: read-out: Area under curve AUC; for CL/F: read-out: Clearance CLz/F; for half-life: read-out: Half Life T1/2 (converted); for Cmax: read-out: Plasma Concentration Cmax; for MRT: read-out: Residence Time MRT
Protocol: Mice were used as the test animal. The drug concentration in plasma at different time points was determined by LC/MS/MS method after administration of compound 3-P2, compound 4-P2, compound 9-P2, compound 10-P2, compound 12 and compound 15. The pharmacokinetic behavior of the compounds of the present disclosure in mice was studied, and the pharmacokinetic characteristics were evaluated.
54 of C57 mice (female) were equally divided into 6 groups, which were purchased from Shanghai Jiesijie Laboratory Animal Co., Ltd., with the animal production license number: SOCK (Shanghai) 2013-0006.
A certain amount of compound was weighted, followed by the addition of 5% volume of DMSO and 5% Tween 80 to dissolve it, then followed by the addition of 90% normal saline to prepare a colorless and clear solution of 0.1 mg/mL.
After an overnight fast, C57 mice were intragastrically administered the test compound at an administration dose of 2 mg/kg and an administration volume of 0.2 ml/10 g.
The mice were intragastrically administered the test compounds. 0.1mL of blood was taken before the administration and at 0.25, 0.5, 1.0, 2.0, 4.0, 6.0, 8.0, 11.0, 24.0 hours after the administration. The blood was placed in a heparinized test tube, and centrifuged at 3500 rpm for 10 minutes. The plasma was separated and stored at −20° C.
The content of the test compound in the plasma of mice after […] administration of the test compound at different concentrations was determined: 25 μl of mouse plasma at each time point after the administration was taken, followed by the addition of 50 μl of the internal standard camptothecin solution (100 ng/mL) and 200 μl of acetonitrile. The resulting solution was vortex-mixed for 5 minutes, and centrifuged for 10 minutes (4000 rpm). 4μl of the supernatant was taken from the plasma samples for LC/MS/MS analysis.

T1 sequence (P28482 whole entry): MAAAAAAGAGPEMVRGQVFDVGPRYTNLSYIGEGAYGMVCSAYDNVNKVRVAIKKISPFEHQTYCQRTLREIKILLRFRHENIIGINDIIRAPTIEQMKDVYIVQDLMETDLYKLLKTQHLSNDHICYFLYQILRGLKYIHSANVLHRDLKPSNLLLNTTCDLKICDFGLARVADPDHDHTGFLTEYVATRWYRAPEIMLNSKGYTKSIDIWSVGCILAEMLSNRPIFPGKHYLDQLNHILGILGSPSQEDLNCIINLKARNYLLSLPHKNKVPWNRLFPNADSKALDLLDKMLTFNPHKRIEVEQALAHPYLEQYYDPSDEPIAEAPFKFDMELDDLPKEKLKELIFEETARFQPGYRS

| pIC50 [1] | pIC50 [2] | Compound | other results |
| --- | --- | --- | --- |
| 6.39 |  | COc1cc(F)cc([C@@H](CO)NC(=O)[C@H](C)N2CCc3sc(-c4nc(NC5CCOCC5)ncc4Cl)cc3C2=O)c1 [Example 9-P1, (S)-2-(2-(5-Chloro-2-((tetrahydro-2H-pyran-4-yl)amino)pyrimidin-4-yl)-4-oxo-6,7-dihydrothieno[3,2-c]pyridin-5(4H)-yl)-N-((S)-1-(3-fluoro-5-methoxyphenyl)-2-hydroxyethyl)prop ionamide] |  |
| 8.52 |  | CC1(C)c2sc(-c3nc(NC4CCOCC4)ncc3Cl)cc2C(=O)N1CC(=O)N[C@H](CO)c1cccc(Cl)c1 [Example 2, (S)-2-(2-(5-Chloro-2-((tetrahydro-2H-pyran-4-yl)amino)pyrimidin-4-yl)-6,6-dimethyl-4-oxo-4,6-dihydro-5H-thieno[2,3-c]pyrrol-5-yl)-N-(1-(3-chlorophenyl)-2-hydroxyethyl)acetamide] |  |
| 9.00 | 8.10 | O=C(CN1CCc2sc(-c3nc(NC4CCOCC4)ncc3Cl)cc2C1=O)N[C@H](CO)c1cccc(Cl)c1 [Example 1, (S)-2-(2-(5-Chloro-2-((tetrahydro-2H-pyran-4-yl)amino)pyrimidin-4-yl)-4-oxo-6,7-dihydrothieno[3,2-c]pyridin-5(4H)-yl)-N-(1-(3-chlorophenyl)-2-hydroxyethyl)acetamide] |  |
| 7.54 |  | O=C(CN1CCc2sc(-c3ccnc(NC4CCOCC4)n3)cc2C1=O)N[C@H](CO)c1cccc(Cl)c1 [Example 6, (S)-N-(1-(3-Chlorophenyl)-2-hydroxyethyl)-2-(4-oxo-2-(2-((tetrahydro-2H-pyran-4-yl)amino)pyrimidin-4-yl)-6,7-dihydrothieno[3,2-c]pyridin-5(4H)-yl)acetamide] |  |
| 8.40 | 7.59 | Cc1cccc([C@@H](CO)NC(=O)[C@@H](C)N2CCc3sc(-c4nc(NC5CCOCC5)ncc4Cl)cc3C2=O)c1 [Example 3-P2, (R)-2-(2-(5-Chloro-2-((tetrahydro-2H-pyran-4-yl)amino)pyrimidin-4-yl)-4-oxo-6,7-dihydrothieno[3,2-c]pyridin-5(4H)-yl)-N-((S)-2-hydroxy-1-(m-methylphenyl)ethyl)propionamide] | Vd/F [3]: 2.98 L/kg; AUC [3]: 914 ng·h/mL; CL/F [3]: 36.5 mL/min/kg; half-life [3]: 0.945 h; Cmax [3]: 708 ng/mL; MRT [3]: 1.16 h |
| 8.52 | 7.42 | Cc1cccc([C@@H](CO)NC(=O)CN2CCc3sc(-c4nc(Nc5ccnn5C)ncc4C)cc3C2=O)c1 [Example 7, (S)-N-(2-Hydroxy-1-(m-methylphenyl)ethyl)-2-(2-(5-methyl-2-((1-methyl-1H-pyrazol-5-yl)amino)pyrimidin-4-yl)-4-oxo-6,7-dihydrothieno[3,2-c]pyridin-5(4H)-yl)acetamide] |  |
| 8.05 | 7.59 | Cc1cccc([C@@H](CO)NC(=O)[C@@H](C)N2CCc3sc(-c4nc(N[C@@H](C)CO)ncc4Cl)cc3C2=O)c1 [Example 13, (R)-2-(2-(5-Chloro-2-(((S)-1-hydroxypropan-2-yl)amino)pyrimidin-4-yl)-4-oxo-6,7-dihydrothieno[3,2-c]pyridin-5(4H)-yl)-N-((S)-2-hydroxy-1-(m-methylphenyl)ethyl)propionamide] |  |
| 6.69 |  | Cc1cccc([C@@H](CO)NC(=O)[C@H](C)N2CCc3sc(-c4nc(NC5CCOCC5)ncc4Cl)cc3C2=O)c1 [Example 3-P1, (S)-2-(2-(5-Chloro-2-((tetrahydro-2H-pyran-4-yl)amino)pyrimidin-4-yl)-4-oxo-6,7-dihydrothieno[3,2-c]pyridin-5(4H)-yl)-N-((S)-2-hydroxy-1-(m-methylphenyl)ethyl)propionamide] |  |
| 8.22 | 7.54 | C[C@H](C(=O)N[C@H](CO)c1cccc(Cl)c1)N1CCc2sc(-c3nc(NC4CCOCC4)ncc3Cl)cc2C1=O [Example 4-P2] | Vd/F [3]: 8.09 L/kg; AUC [3]: 364 ng·h/mL; CL/F [3]: 91.5 mL/min/kg; half-life [3]: 1.02 h; Cmax [3]: 376 ng/mL; MRT [3]: 1.14 h |
| 7.66 |  | CC(C(=O)N[C@H](CO)c1cccc(Cl)c1)N1C(=O)c2cc(-c3nc(NC4CCOCC4)ncc3Cl)sc2C1(C)C (stereo partly drawn) [Example 5, 2-(2-(5-Chloro-2-((tetrahydro-2H-pyran-4-yl)amino)pyrimidin-4-yl)-6,6-dimethyl-4-oxo-4,6-dihydro-5H-thieno[2,3-c]pyrrol-5-yl)-N-((S)-1-(3-chlorophenyl)-2-hydroxyethyl)propionamide] |  |
| 6.36 |  | C[C@@H](C(=O)N[C@H](CO)c1cccc(Cl)c1)N1CCc2sc(-c3nc(NC4CCOCC4)ncc3Cl)cc2C1=O [Example 4-P1, (S)-2-(2-(5-Chloro-2-((tetrahydro-2H-pyran-4-yl)amino)pyrimidin-4-yl)-4-oxo-6,7-di hydrothieno[3,2-c]pyridin-5(4H)-yl)-N-((S)-1-(3-chlorophenyl)-2-hydroxyethyl)propionamide] |  |
